Experiment [1] has as its system HCT-116. Briefly: Cytotoxicity against human HCT-116 cells assessed as inhibition of cell growth at 20 uM measured after 72 hrs by MTT assay relative to control. In kind it is functional. In general terms: Tetrazolium dyes change colour on reduction, which living cells bring about.
The test system of another experiment is MDA-MB-231. Briefly: Cytotoxicity against human MDA-MB-231 cells assessed as inhibition of cell growth at 20 uM measured after 72 hrs by MTT assay relative to control. The experiment is classed as functional.
Experiment [2] concerns A549. Briefly: Cytotoxicity against human A549 cells assessed as inhibition of cell growth at 20 uM measured after 72 hrs by MTT assay relative to control. The experiment is classed as functional.
The test system of experiment [3] is A549. Briefly: Cytotoxicity against human A549 cells assessed as inhibition of cell growth measured after 72 hrs by MTT assay. In kind it is functional, cell-based.
Experiment [4] concerns HCT-116. Description: Cytotoxicity against human HCT-116 cells assessed as inhibition of cell growth measured after 72 hrs by MTT assay. The experiment is classed as functional, cell-based. The conditions noted are these: HCT-116, 72 h.
The target in the next experiment is TAK1-TAB1 fusion protein (Homo sapiens, UniProt O43318). Briefly: Inhibition of Tak1/Tab1 (unknown origin) assessed as inhibition of Tak1 kinase activity preincubated for 30 mins followed by addition of MBP protein and ATP and measured after 2 hrs by ADP-Glo kinase assay. (In general: ADP-Glo first removes unused ATP, then detects ADP through luciferase.)
Another experiment concerns MAP3K7/TAB1 [+]. Briefly: Inhibition of Tak1/Tab1 (unknown origin) assessed as inhibition of Tak1 kinase activity preincubated for 30 mins followed by addition of MBP protein and ATP and measured after 2 hrs by ADP-Glo kinase assay.
The mark [5] stands for this setting: Homo sapiens, A549, 72 h, read-out: IC50.

Chain of TAK1-TAB1 fusion protein (O43318 whole entry, looked up, the tested form may be a part): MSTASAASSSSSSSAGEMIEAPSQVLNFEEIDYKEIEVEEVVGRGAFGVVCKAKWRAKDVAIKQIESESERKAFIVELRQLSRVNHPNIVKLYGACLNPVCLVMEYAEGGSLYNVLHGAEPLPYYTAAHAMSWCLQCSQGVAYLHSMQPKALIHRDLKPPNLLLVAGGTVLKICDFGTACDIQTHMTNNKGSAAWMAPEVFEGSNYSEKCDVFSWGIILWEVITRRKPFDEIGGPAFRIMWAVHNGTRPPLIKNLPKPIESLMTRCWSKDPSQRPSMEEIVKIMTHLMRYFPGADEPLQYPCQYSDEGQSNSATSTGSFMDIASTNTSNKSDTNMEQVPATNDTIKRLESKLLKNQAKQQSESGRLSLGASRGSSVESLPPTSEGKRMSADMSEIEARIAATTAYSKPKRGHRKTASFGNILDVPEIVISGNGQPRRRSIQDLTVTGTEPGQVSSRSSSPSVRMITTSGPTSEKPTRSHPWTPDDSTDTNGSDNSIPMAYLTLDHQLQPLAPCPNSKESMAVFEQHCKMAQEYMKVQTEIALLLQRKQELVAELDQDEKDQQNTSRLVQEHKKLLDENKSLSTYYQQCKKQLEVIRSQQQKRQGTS

A word on the inhibition: it is the relative decrease from the control value, in per cent. A word on the IC50: it is the concentration at which inhibition is half-maximal. In the case of `CN(C)c1ccc(C(=O)Nc2ccc(Oc3ncnc4ccsc34)cc2)cc1`, the figures for the inhibition at 20 µM in the experiment on HCT-116 [1], in the experiment with MDA-MB-231 and with A549 [2] were 53.9%, 10.4% and 50.8%, respectively. Further, in the experiment with A549 [3] (setting [5]), the IC50 stood at 20.2 µM.
In the case of `CN(c1ccc(Oc2ncnc3ccsc23)cc1)c1nccc(N2CCc3ccccc32)n1`, the inhibition at 20 µM was found to be 57.8% in the experiment on HCT-116 [1], 38.2% in the experiment with MDA-MB-231 and 58.2% in the experiment with A549 [2]. In addition, the IC50 in the experiment on A549 [3] (setting [5]) stood at 20.5 µM.
For `CNC(=O)c1cc(Oc2ccc(Nc3nccc(N4CCCC4)n3)cc2)ccn1`, the results for the inhibition at 20 µM in the experiment on HCT-116 [1], with MDA-MB-231 and with A549 [2] were 66.4%, 46.6% and 59.6%, respectively. Besides, the IC50 with HCT-116 [4] came to 1.41 µM; in the experiment on A549 [3] (setting [5]) it was 3.41 µM; on TAK1-TAB1 fusion protein, 1.36 µM.
As to `c1cc(N2CCOCC2)nc(Nc2ccc(Oc3ncnc4ccsc34)cc2)n1`, the inhibition at 20 µM with HCT-116 [1] is 53.1%; in the experiment with MDA-MB-231, 23%; in the experiment on A549 [2], 57.9%. Besides, the values for the IC50 with A549 [3] (setting [5]) and on TAK1-TAB1 fusion protein were 6.86 µM and 15.7 µM, respectively.
As to `c1ccc2c(c1)CCN2c1ccnc(Nc2ccc(Oc3ncnc4sccc34)cc2)n1`, the inhibition at 20 µM is -0.62% in the experiment on HCT-116 [1], 9.95% in the experiment on MDA-MB-231 and 2.81% in the experiment with A549 [2]. In the experiment with A549 [3] (a549), the IC50 result is on record as “Not Active”.
Regarding `c1cc(N2CCCC2)nc(Nc2ccc(Oc3ncnc4ccsc34)cc2)n1`, the inhibition at 20 µM with HCT-116 [1] came out at 22.2%; with MDA-MB-231, 14.3%; in the experiment on A549 [2], 23.2%. The IC50 entry in the experiment on A549 [3] (a549) is reported as “Not Active”.
On to `CN(c1ccc(Oc2ncnc3ccsc23)cc1)c1nccc(N2CCCC2)n1`, for which the inhibition at 20 µM with HCT-116 [1] was determined as 63.5%; in the experiment on MDA-MB-231, 38%; with A549 [2], 63.9%. The values for the IC50 result in the experiment with MAP3K7/TAB1 [+] and in the experiment with A549 [3] (setting [5]) were “Not Active” and 6.51 µM, respectively.
On to `c1ccc2c(c1)CCN(c1ccnc(Nc3ccc(Oc4ncnc5sccc45)cc3)n1)C2`, for which the results for the inhibition at 20 µM in the experiment on HCT-116 [1], in the experiment with MDA-MB-231 and in the experiment with A549 [2] were 18.1%, 26.8% and 34%, respectively. Further, the IC50 stood at 6.75 µM in the experiment on A549 [3] (setting [5]) and 6.87 µM on TAK1-TAB1 fusion protein.
Take `c1cc(N2CCCCC2)nc(Nc2ccc(Oc3ncnc4sccc34)cc2)n1`: the inhibition at 20 µM in the experiment with HCT-116 [1] amounted to 66.3%; in the experiment on MDA-MB-231, 40.4%; in the experiment on A549 [2], 64.8%. For the same compound, the IC50 in the experiment on A549 [3] (setting [5]) turned out to be 4.02 µM; on TAK1-TAB1 fusion protein, 2.52 µM.
Consider `CN(c1ccc(Oc2ncnc3ccsc23)cc1)c1nccc(N2CCc3ccccc3C2)n1`, for which the values for the inhibition at 20 µM in the experiment with HCT-116 [1], in the experiment on MDA-MB-231 and in the experiment with A549 [2] were 58.3%, 30.2% and 69.9%, respectively. In addition, the IC50 in the experiment on A549 [3] (setting [5]) is 16.1 µM.
In the case of `c1ccc(CNc2ccc(Oc3ncnc4ccsc34)cc2)cc1`, the inhibition at 20 µM was -12.2% with HCT-116 [1], 3.72% in the experiment on MDA-MB-231 and 30.6% in the experiment with A549 [2]. Besides, the IC50 result in the experiment on A549 [3] (a549) is recorded as “Not Active”.
Consider `CN(c1ccc(Oc2ncnc3ccsc23)cc1)c1nccc(N2CCCCC2)n1`, for which the results for the inhibition at 20 µM in the experiment on HCT-116 [1], in the experiment on MDA-MB-231 and in the experiment on A549 [2] were 66.2%, 49.7% and 65.7%, respectively. In addition, in the experiment on A549 [3] (setting [5]), the IC50 was found to be 8.24 µM.
`CN(c1ccc(Oc2ncnc3sccc23)cc1)c1nccc(N2CCCC2)n1`: the inhibition at 20 µM with HCT-116 [1] turned out to be 42.2%; with MDA-MB-231, 31%; with A549 [2], 55.5%. In addition, the IC50 in the experiment with A549 [3] (setting [5]) amounted to 15.1 µM.
Regarding `CN(c1ccc(Oc2ncnc3sccc23)cc1)c1nccc(N2CCc3ccccc32)n1`, the inhibition at 20 µM in the experiment on HCT-116 [1] came out at 20%; in the experiment on MDA-MB-231 it was 17.6%; in the experiment on A549 [2], 29.4%. Moreover, the half-inhibitory concentration (IC50) in the experiment with A549 [3] (setting [5]) stood at 19.6 µM.
Regarding `CN(c1ccc(Oc2ncnc3sccc23)cc1)c1nccc(N2CCc3ccccc3C2)n1`, the inhibition at 20 µM with HCT-116 [1] turned out to be 57.7%; in the experiment with MDA-MB-231 it was 24.3%; in the experiment on A549 [2], 68.4%. Further, the values for the IC50 with A549 [3] (setting [5]) and on TAK1-TAB1 fusion protein were 6.39 µM and 12 µM, respectively.
`c1cc(N2CCOCC2)nc(Nc2ccc(Oc3ncnc4sccc34)cc2)n1`: the inhibition at 20 µM in the experiment on HCT-116 [1] is 37.5%; with MDA-MB-231 it was 14.5%; in the experiment with A549 [2], 36.7%. Further, in the experiment on A549 [3] (setting [5]), the IC50 is 9.31 µM.
`c1cc(N2CCCCC2)nc(Nc2ccc(Oc3ncnc4ccsc34)cc2)n1`: the inhibition at 20 µM turned out to be 61.5% in the experiment with HCT-116 [1], 45.7% in the experiment with MDA-MB-231 and 59.9% in the experiment with A549 [2]. Moreover, the IC50 in the experiment on A549 [3] (setting [5]) is 7.8 µM.
In the case of `CNC(=O)c1cc(Oc2ccc(Nc3nccc(N4CCc5ccccc5C4)n3)cc2)ccn1`, the inhibition at 20 µM was determined as 31.2% in the experiment with HCT-116 [1], 41.2% with MDA-MB-231 and 59.6% in the experiment with A549 [2]. The IC50 turned out to be 15.8 µM in the experiment with HCT-116 [4], 3.19 µM in the experiment with A549 [3] (setting [5]) and 1.26 µM at TAK1-TAB1 fusion protein.
In the case of `CN(c1ccc(Oc2ncnc3sccc23)cc1)c1nccc(N2CCCCC2)n1`, the results for the inhibition at 20 µM in the experiment on HCT-116 [1], in the experiment on MDA-MB-231 and in the experiment with A549 [2] were 52.1%, 29.3% and 51.9%, respectively. In the experiment with A549 [3] (setting [5]), the IC50 came to 8.79 µM.
`CCN(CC)c1ccc(C(=O)Nc2ccc(Oc3ncnc4ccsc34)cc2)cc1`: the inhibition at 20 µM was 37.9% in the experiment on HCT-116 [1], 38.3% in the experiment with MDA-MB-231 and 63.8% with A549 [2]. The IC50 with A549 [3] (setting [5]) amounted to 8.03 µM.
In the same order, the values of `c1cc(N2CCCC2)nc(Nc2ccc(Oc3ncnc4sccc34)cc2)n1` are 54.4%, 24.7%, 61% and 8.1 µM.
With `CNC(=O)c1cc(Oc2ccc(Nc3nccc(N4CCOCC4)n3)cc2)ccn1`, the inhibition at 20 µM in the experiment with HCT-116 [1] was found to be 48.3%; with MDA-MB-231, 34.1%; in the experiment on A549 [2], 66.3%. Moreover, the IC50 stood at 12.8 µM in the experiment on HCT-116 [4] and 7.34 µM in the experiment with A549 [3] (setting [5]).
As to `c1ccc2c(c1)CCN(c1ccnc(Nc3ccc(Oc4ncnc5ccsc45)cc3)n1)C2`, the results for the inhibition at 20 µM in the experiment on HCT-116 [1], in the experiment with MDA-MB-231 and in the experiment on A549 [2] were 40.9%, 15.4% and 54.9%, respectively. The concentration for half-maximal inhibition (IC50) in the experiment on A549 [3] (setting [5]) is 17 µM.

For the origin of these results see ChEMBL document CHEMBL4831488, “Design, synthesis, docking, molecular dynamics and bioevaluation studies on novel N-methylpicolinamide and thienopyrimidine derivatives with inhibiting NF-κB and TAK1 activities: Cheminformatics tools RDKit applied in drug design” (Eur J Med Chem, 2021).
